Each structure is given as a SMILES string. Where two headings read alike, the source gives them in different places.

This is an account of results in article PMC6556873, “Rapid Covalent-Probe Discovery by Electrophile-Fragment Screening” (Journal of the American Chemical Society, 2019).

One data set concerns the target T1, BSA (Bos taurus, UniProt P02769).
T1 construct: gene ALB
Details: Intact protein LC/MS covalent labelling, fragments in pools of five, 200 uM each, 4 °C. The following applies: 24 h, 4 °C, pool of five; 200 µM; covalent.

A further data set has as its target T2, NNMT (hNNMT) (Homo sapiens, UniProt P40261).
T2 construct: wild type, N-terminal His6 tag kept (no cleavage described), E. coli, construct 31248 Da
T2 sequence (P40261 1-264): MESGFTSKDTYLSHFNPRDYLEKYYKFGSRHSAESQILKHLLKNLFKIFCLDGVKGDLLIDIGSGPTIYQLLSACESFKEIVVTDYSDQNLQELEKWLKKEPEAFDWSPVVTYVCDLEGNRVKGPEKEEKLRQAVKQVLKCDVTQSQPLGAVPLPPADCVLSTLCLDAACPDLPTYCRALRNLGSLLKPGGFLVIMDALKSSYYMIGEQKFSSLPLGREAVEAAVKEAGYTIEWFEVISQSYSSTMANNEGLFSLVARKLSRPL
Details: Intact protein LC/MS covalent labelling, fragments in pools of five, 200 uM each, 4 °C. The conditions noted are these: 24 h, 4 °C, pool of five; 200 µM; covalent.

In the next data set the target is T3, NUDT7 (Homo sapiens, UniProt P0C024).
T3 construct: residues 14-235, E. coli, pNIC28-Bsa4, N-terminal His6 tag removed by TEV, construct 26672 Da
Set-up: Intact protein LC/MS covalent labelling, fragments in pools of five, 200 uM each, 4 °C. The conditions noted are these: 24 h, 4 °C, pool of five; 200 µM; covalent.

For the next data set, the target named is T4, OTUB2 (OTUB2A) (Homo sapiens, UniProt Q96DC9).
T4 construct: full length residues 1-234, E. coli BL21(DE3)-R3, His tag removed by TEV, construct 27312 Da
T4 sequence (Q96DC9 1-234): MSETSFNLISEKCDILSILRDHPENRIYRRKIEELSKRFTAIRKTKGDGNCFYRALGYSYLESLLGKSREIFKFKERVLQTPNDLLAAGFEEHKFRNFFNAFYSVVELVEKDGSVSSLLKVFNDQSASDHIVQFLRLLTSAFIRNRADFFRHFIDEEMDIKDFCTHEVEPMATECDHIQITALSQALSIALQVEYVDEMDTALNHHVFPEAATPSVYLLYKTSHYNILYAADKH
Set-up: Intact protein LC/MS covalent labelling, fragments in pools of five, 200 uM each, 4 °C. The conditions noted are these: 24 h, 4 °C, pool of five; 200 µM; covalent.

The target of another data set is T5, PCAF (Homo sapiens, UniProt Q92831).
T5 construct: gene KAT2B
Details: Intact protein LC/MS covalent labelling, fragments in pools of five, 200 uM each, 4 °C. The following applies: 24 h, 4 °C, pool of five; 200 µM; covalent.

Data set [1] is described as follows: in vitro. Details: species or system CCD841, HEK293. The following applies: human, hb2 cells, read-out: HB-2 Cells Viability (%).
The nature of data set [2]: in vitro. Set-up: species or system HB2, HEK293. The following applies: human, ccd841 cells.
The nature of data set [3]: in vitro. Details: species or system HB2, CCD841. The following applies: human, hek293 cells.

T3 sequence (P0C024 14-235): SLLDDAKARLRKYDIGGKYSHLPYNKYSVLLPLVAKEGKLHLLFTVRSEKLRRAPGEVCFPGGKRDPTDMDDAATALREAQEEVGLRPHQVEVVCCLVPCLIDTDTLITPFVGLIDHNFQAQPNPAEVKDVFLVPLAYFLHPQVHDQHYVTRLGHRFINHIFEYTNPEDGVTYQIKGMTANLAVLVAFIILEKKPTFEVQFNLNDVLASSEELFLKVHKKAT
T5 sequence (Q92831 whole entry): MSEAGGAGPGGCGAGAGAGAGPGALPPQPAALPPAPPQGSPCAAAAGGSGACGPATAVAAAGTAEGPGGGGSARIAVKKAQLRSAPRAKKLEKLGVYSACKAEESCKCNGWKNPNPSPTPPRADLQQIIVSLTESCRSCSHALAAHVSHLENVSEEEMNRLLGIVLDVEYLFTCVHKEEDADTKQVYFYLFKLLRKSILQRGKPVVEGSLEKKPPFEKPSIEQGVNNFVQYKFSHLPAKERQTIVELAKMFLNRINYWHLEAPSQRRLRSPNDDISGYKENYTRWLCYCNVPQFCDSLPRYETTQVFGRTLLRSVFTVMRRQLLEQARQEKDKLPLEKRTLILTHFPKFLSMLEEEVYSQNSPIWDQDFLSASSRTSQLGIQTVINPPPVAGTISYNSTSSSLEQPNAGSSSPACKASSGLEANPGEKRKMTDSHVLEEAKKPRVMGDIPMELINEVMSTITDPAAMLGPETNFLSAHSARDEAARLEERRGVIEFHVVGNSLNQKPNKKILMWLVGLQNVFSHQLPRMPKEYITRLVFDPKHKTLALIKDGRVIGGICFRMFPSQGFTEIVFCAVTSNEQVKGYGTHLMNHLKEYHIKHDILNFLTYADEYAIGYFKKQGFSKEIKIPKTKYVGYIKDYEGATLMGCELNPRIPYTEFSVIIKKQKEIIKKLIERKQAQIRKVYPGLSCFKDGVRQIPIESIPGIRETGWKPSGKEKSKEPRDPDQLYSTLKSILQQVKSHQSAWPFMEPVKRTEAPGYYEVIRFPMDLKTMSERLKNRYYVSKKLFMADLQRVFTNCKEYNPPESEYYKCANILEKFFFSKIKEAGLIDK
T1 sequence (P02769 whole entry): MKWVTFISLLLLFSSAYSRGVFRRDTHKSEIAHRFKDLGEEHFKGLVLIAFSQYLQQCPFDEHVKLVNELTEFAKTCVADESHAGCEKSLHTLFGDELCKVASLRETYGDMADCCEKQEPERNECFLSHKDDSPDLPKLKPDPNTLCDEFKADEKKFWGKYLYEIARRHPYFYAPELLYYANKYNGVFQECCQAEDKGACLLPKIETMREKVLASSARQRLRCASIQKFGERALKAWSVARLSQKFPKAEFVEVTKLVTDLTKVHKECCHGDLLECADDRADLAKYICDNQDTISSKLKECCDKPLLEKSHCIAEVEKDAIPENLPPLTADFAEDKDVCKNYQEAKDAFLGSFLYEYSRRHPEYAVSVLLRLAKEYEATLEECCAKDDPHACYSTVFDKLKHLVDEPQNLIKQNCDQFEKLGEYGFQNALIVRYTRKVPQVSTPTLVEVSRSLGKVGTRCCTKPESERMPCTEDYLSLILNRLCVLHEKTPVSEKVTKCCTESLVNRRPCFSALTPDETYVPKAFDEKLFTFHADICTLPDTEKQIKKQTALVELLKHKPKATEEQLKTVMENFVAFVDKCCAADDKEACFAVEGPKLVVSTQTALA

By viability is commonly meant a read-out of living cells in per cent, often relative to untreated cells. Consider `C=CC(=O)NC1CCC(c2nc(C)no2)CC1` (stereo not drawn) [PCM-0102521], for which, at BSA, the BSA stood at 0. On NNMT (hNNMT), this compound showed an NNMT of 0. The NUDT7 on NUDT7 turned out to be 0. At OTUB2 (OTUB2A), this compound returned an OTUB2 of 0.35. Also, the PCAF on PCAF is recorded as 0. For the same compound, the viability at 48 h, 10 µM in the data set “in vitro [1]” worked out at 101%; in the data set “in vitro [2]” it was 116%; in “in vitro [3]” it was 83%.
On to `N#Cc1oc2ccccc2c1NC(=O)CCl` [PCM-0102252], for which the BSA on BSA came to 0. Further, the NNMT on NNMT (hNNMT) is recorded as 0.34. Moreover, at NUDT7, the NUDT7 amounted to 0.37. At OTUB2 (OTUB2A), this compound registered an OTUB2 of 0.86. The same compound had a PCAF at PCAF of 0. Besides, the viability at 48 h, 10 µM in “in vitro [1]” was 3.8%; in the data set “in vitro [2]” it was 34.7%; in “in vitro [3]” it was 3.4%.
At BSA, `C=CC(=O)N(C)Cc1c(C)nc2sc(C)cn12` [PCM-0102679] gave a BSA of 0. Further, the NNMT on NNMT (hNNMT) was determined as 0.32. On NUDT7, this compound had an NUDT7 of 0.06. For the same compound, the OTUB2 at OTUB2 (OTUB2A) was 0. The compound also had a PCAF on PCAF of 0. The viability at 48 h, 10 µM in “in vitro [1]” was 103%; in the data set “in vitro [2]”, 108%; in the data set “in vitro [3]”, 83.2%.
Take `CCOC(=O)N1CCC(NC(=O)CCl)CC1` [PCM-0102255]: the BSA on BSA came out at 0. Besides, the NNMT at NNMT (hNNMT) amounted to 0.23. Also, at NUDT7, the NUDT7 was determined as 0. Moreover, the OTUB2 on OTUB2 (OTUB2A) is reported as 0.24. The PCAF at PCAF is 0. Besides, the viability at 48 h, 10 µM came to 61.8% in “in vitro [1]”, 61.3% in the data set “in vitro [2]” and 74.2% in the data set “in vitro [3]”.
On BSA, `C=CC(=O)N1CCC(C(=O)[O-])CC1.[Na+]` [PCM-0102613] showed a BSA of 0. Moreover, on NNMT (hNNMT), the NNMT is listed as 0. The compound further showed an NUDT7 at NUDT7 of 0. Besides, the OTUB2 on OTUB2 (OTUB2A) worked out at 0. Also, on PCAF, the PCAF is on record as 0. Also, the viability at 48 h, 10 µM in the data set “in vitro [1]” was 98.2%; in the data set “in vitro [2]”, 125%; in the data set “in vitro [3]” it was 114%.
Regarding `O=C(CCl)NC(=O)Cc1ccccc1` [PCM-0102902], the BSA at BSA is reported as 0. The compound also gave an NNMT on NNMT (hNNMT) of 0. The compound further returned an NUDT7 on NUDT7 of 0. Further, on OTUB2 (OTUB2A), the OTUB2 was 0. On PCAF, this compound gave a PCAF of 0. In addition, the viability at 48 h, 10 µM in “in vitro [1]” is 104%; in “in vitro [2]” it was 117%; in “in vitro [3]”, 116%.
Compound `CN(C)C(=O)CN1CCN(C(=O)CCl)CC1.Cl` [PCM-0102304] gave a BSA on BSA of 0. For the same compound, the NNMT at NNMT (hNNMT) was determined as 0. The compound also returned an NUDT7 on NUDT7 of 0. The same compound had an OTUB2 at OTUB2 (OTUB2A) of 0. The compound further registered a PCAF at PCAF of 0. Further, the viability at 48 h, 10 µM in “in vitro [1]” worked out at 107%; in the data set “in vitro [2]” it was 114%; in the data set “in vitro [3]”, 128%.
Turning to `O=C(CCl)NC1c2ccccc2-c2ccccc21` [PCM-0102802], on BSA, the BSA is recorded as 0. Also, the NNMT at NNMT (hNNMT) amounted to 0. This compound gave an NUDT7 at NUDT7 of 0.19. This compound registered an OTUB2 on OTUB2 (OTUB2A) of 0.16. Moreover, the PCAF on PCAF worked out at 0. Besides, the viability at 48 h, 10 µM in “in vitro [1]” is 61.8%; in the data set “in vitro [2]” it was 82.7%; in “in vitro [3]” it was 58.9%.
In turn, `CCOC(=O)C1CCCN(C(=O)CCl)C1` (stereo not drawn) [PCM-0103015] returned a BSA at BSA of 0. Also, on NNMT (hNNMT), the NNMT is given as 0.13. Besides, the NUDT7 on NUDT7 turned out to be 0. At OTUB2 (OTUB2A), this compound returned an OTUB2 of 0.09. In addition, the PCAF at PCAF came out at 0. Moreover, the viability at 48 h, 10 µM in the data set “in vitro [1]” was found to be 104%; in “in vitro [2]”, 98.8%; in “in vitro [3]”, 98.8%.
With `C=CC(=O)N1CCC2C(CCCN2Cc2ccccc2)C1` (stereo not drawn) [PCM-0102673], at BSA, the BSA amounted to 0. Moreover, the NNMT on NNMT (hNNMT) turned out to be 0. The NUDT7 at NUDT7 was 0. Further, the OTUB2 at OTUB2 (OTUB2A) turned out to be 0. Further, on PCAF, the PCAF was determined as 0. Further, the viability at 48 h, 10 µM in the data set “in vitro [1]” was determined as 102%; in the data set “in vitro [2]” it was 116%; in “in vitro [3]” it was 85%.
`O=C(CCl)NC(=O)CN1CCCC1=O` [PCM-0102824]: the BSA on BSA is 0. In addition, the NNMT at NNMT (hNNMT) was determined as 0. Further, the NUDT7 on NUDT7 is recorded as 0. On OTUB2 (OTUB2A), this compound displayed an OTUB2 of 0. The same compound displayed a PCAF at PCAF of 0. The viability at 48 h, 10 µM in “in vitro [1]” turned out to be 105%; in the data set “in vitro [2]”, 111%; in “in vitro [3]” it was 110%.
As to `Cl.O=C(CCl)N1CCN(c2ccc(F)cc2)CC1` [PCM-0102905], the BSA on BSA was determined as 0. The compound further came in with an NNMT at NNMT (hNNMT) of 0.2. This compound also showed an NUDT7 on NUDT7 of 0.1. On OTUB2 (OTUB2A), this compound had an OTUB2 of 0.07. This compound returned a PCAF on PCAF of 0. Besides, the results for the viability at 48 h, 10 µM in “in vitro [1]”, in the data set “in vitro [2]” and in “in vitro [3]” were 24.7%, 77% and 56.8%, respectively.
`C=CC(=O)N1CCCCC1c1ccc(C(=O)NC)n1C` (stereo not drawn) [PCM-0102610] returned a BSA at BSA of 0. For the same compound, on NNMT (hNNMT), the NNMT stood at 0.14. Further, the NUDT7 on NUDT7 came out at 0. Further, the OTUB2 on OTUB2 (OTUB2A) is given as 0. The compound further had a PCAF at PCAF of 0. The values for the viability at 48 h, 10 µM in “in vitro [1]”, in “in vitro [2]” and in the data set “in vitro [3]” were 106%, 112% and 99.3%, respectively.
On to `O=C(CCl)NCc1cccc(F)c1` [PCM-0103047], for which, on BSA, the BSA is reported as 0. The compound also gave an NNMT on NNMT (hNNMT) of 0. The compound also displayed an NUDT7 at NUDT7 of 0. This compound displayed an OTUB2 at OTUB2 (OTUB2A) of 0.43. Moreover, at PCAF, the PCAF turned out to be 0. Moreover, the results for the viability at 48 h, 10 µM in “in vitro [1]”, in “in vitro [2]” and in “in vitro [3]” were 83.7%, 69.7% and 88.1%, respectively.
On BSA, `C=CC(=O)Nc1cc(F)ccc1C` [PCM-0102917] yielded a BSA of 0. Also, at NNMT (hNNMT), the NNMT was determined as 0. The same compound came in with an NUDT7 on NUDT7 of 0. This compound also came in with an OTUB2 on OTUB2 (OTUB2A) of 0. This compound also yielded a PCAF at PCAF of 0. Further, the values for the viability at 48 h, 10 µM in “in vitro [1]”, in the data set “in vitro [2]” and in the data set “in vitro [3]” were 103%, 106% and 76.3%, respectively.
For `CC(=O)c1oc2ccccc2c1NC(=O)CCl` [PCM-0102918], the BSA on BSA is listed as 0. Further, the NNMT on NNMT (hNNMT) is listed as 0.56. Moreover, the NUDT7 at NUDT7 is reported as 0.39. The same compound displayed an OTUB2 at OTUB2 (OTUB2A) of 0. The compound also registered a PCAF on PCAF of 0. In addition, the results for the viability at 48 h, 10 µM in the data set “in vitro [1]”, in the data set “in vitro [2]” and in the data set “in vitro [3]” were 42.4%, 65.3% and 36.8%, respectively.
Take `O=C(CCl)N1CCC(C(=O)N2CCCCC2)CC1` [PCM-0102972]: the BSA at BSA came to 0. On NNMT (hNNMT), this compound yielded an NNMT of 0. At NUDT7, the NUDT7 was 0. The OTUB2 on OTUB2 (OTUB2A) is 0.08. Also, the PCAF on PCAF came to 0. Also, the viability at 48 h, 10 µM in “in vitro [1]” came out at 84.6%; in the data set “in vitro [2]”, 106%; in the data set “in vitro [3]” it was 76.6%.
In turn, `COC(=O)c1c(NC(=O)CCl)sc2c1CCC(C)C2` (stereo not drawn) [PCM-0102418] yielded a BSA on BSA of 0. The same compound displayed an NNMT at NNMT (hNNMT) of 0.8. On NUDT7, the NUDT7 is 0.12. At OTUB2 (OTUB2A), the OTUB2 was 0. This compound also yielded a PCAF at PCAF of 0. Moreover, the viability at 48 h, 10 µM amounted to 40.8% in “in vitro [1]”, 88.6% in the data set “in vitro [2]” and 56.4% in the data set “in vitro [3]”.
